Active and inactive are the calls of the source.
Legend:
[1] = test system: T-cell; experiment: loss of vesicle association with mouse CD8+ T cells – mouse 2C CD8+ T cells, flow cytometry, dose response (AID 485284); format: functional
[2] = Luminescence Cell-Based Dose Retest to Confirm Inhibitors of Cancer Stem Cells. [Related pubchem assays (depositor defined):AID2717, AID2721]; format: functional; details: Homo sapiens
[3] = viability loss in HepG2 hepatoma cells – cell-based, ATP luminescence, cherry-pick, activator set 2, cytotoxicity control, dose response (AID 1053143); format: functional
[4] = test system: INS1; experiment: INS-1E survival protection against cytokine death – cell-based, luminescence, retest, dose response (AID 449756); format: functional; details: Rattus norvegicus;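 note: cell death triggered by IL-1 beta plus TNF-alpha plus IFN-gamma mixture; protective hits raise ATP signal compared with cytokine alone wells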
[5] = test system: Vero; experiment: viability of Vero cells under compound – cytotoxicity control for flavivirus capping enzyme inhibitors (AID 588742); format: functional; details: Chlorocebus sabaeus
[6] = biological target: Genome polyprotein (dengue virus type 2, UniProt P29990); experiment: flavivirus cap methylation enzyme inhibition – biochemical, confirmation dose response, primary screen (AID 588689); format: functional
[7] = biological target: T1, Replicative DNA helicase DnaB (Mycobacterium tuberculosis, UniProt P9WMR3); experiment: DnaB intein splicing inhibitors, dose response, biochemical, cell-free fluorescence (AID 449749); format: functional
T1 sequence (P9WMR3 whole entry): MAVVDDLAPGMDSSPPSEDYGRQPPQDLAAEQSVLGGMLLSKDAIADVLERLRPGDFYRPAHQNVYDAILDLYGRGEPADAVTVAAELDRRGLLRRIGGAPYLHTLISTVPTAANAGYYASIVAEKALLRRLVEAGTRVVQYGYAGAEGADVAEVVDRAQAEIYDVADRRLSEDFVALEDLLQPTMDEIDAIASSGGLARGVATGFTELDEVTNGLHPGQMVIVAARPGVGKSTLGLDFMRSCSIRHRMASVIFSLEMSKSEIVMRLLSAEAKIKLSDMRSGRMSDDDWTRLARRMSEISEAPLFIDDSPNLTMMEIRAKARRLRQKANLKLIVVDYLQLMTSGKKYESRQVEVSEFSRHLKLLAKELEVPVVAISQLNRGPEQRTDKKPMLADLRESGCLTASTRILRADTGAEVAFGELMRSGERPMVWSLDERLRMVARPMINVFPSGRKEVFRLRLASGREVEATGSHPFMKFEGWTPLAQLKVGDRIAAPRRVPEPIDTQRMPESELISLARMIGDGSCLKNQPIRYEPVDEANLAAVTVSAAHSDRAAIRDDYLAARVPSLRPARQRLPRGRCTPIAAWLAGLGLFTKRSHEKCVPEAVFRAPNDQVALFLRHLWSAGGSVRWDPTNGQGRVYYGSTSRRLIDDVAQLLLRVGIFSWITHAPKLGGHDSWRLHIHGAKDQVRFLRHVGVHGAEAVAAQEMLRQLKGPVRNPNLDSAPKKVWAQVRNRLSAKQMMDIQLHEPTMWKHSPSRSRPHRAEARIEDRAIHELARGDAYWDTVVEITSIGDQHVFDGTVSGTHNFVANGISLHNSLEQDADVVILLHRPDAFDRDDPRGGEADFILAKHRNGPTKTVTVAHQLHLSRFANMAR

[8] = biological target: T2, Protein RecA (Mycobacterium tuberculosis, UniProt P9WHJ3); experiment: Fluorescence Cell-Free Homogeneous Dose Retest to Identify Inhibitors of RecA-Intein Splicing Activity. [Related pubchem assays (depositor defined):AID2097, AID2223, AID489010, AID492950]; format: functional
T2 sequence (P9WHJ3 whole entry): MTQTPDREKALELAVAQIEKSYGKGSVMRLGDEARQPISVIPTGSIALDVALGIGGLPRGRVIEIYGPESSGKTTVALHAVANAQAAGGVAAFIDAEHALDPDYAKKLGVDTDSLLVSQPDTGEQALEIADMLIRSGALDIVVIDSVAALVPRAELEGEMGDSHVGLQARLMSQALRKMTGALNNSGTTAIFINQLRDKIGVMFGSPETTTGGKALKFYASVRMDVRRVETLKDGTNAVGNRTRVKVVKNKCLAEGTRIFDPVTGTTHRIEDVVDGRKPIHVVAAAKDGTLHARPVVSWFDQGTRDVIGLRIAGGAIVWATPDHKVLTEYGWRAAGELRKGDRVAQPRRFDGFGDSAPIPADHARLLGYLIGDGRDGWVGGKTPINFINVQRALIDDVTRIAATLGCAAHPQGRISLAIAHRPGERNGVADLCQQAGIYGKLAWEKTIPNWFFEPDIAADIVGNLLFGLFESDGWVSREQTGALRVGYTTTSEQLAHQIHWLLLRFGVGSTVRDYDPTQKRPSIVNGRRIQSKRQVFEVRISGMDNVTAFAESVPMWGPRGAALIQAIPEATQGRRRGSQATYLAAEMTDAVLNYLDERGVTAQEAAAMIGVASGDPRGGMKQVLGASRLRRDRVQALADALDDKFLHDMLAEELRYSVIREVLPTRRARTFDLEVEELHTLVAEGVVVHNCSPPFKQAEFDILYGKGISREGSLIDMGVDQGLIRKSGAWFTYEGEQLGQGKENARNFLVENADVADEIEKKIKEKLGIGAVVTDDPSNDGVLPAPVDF

[9] = Intein inhibitors as potential Tuberculosis drugs, a cytotoxicity screen. [Related pubchem assays (depositor defined):AID2221, AID2223, AID434968, AID435010, AID449749, AID449750, AID489010]; format: functional
[10] = biological target: T3, Coagulation factor XII (Homo sapiens, UniProt P00748); experiment: Factor XIIa Dose Response Confirmation from Single Well HTS. [Related pubchem assays (depositor defined):AID701]; format: functional
T3 sequence (P00748 whole entry): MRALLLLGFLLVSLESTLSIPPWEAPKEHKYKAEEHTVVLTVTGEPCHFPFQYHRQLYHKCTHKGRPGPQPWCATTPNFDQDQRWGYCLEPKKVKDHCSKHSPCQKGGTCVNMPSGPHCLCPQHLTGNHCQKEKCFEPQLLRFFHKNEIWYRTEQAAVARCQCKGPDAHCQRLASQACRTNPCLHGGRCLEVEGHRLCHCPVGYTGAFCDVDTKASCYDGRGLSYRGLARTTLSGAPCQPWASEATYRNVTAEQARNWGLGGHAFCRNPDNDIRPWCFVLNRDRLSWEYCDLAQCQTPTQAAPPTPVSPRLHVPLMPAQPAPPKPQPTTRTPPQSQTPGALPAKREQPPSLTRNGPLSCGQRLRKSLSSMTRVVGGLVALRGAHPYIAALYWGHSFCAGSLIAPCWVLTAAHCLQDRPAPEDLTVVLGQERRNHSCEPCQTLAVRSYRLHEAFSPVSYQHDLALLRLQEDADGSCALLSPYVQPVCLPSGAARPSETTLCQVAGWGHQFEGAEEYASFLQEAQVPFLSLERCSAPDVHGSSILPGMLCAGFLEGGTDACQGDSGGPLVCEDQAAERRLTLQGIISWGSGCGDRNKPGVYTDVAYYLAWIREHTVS

[11] = biological target: Troponin, cardiac muscle (Homo sapiens, UniProt P19429+P45379+P63316); experiment: Fluorescence-based biochemical high throughput dose response assay for activators of the calcium sensitivity of cardiac Regulated Thin Filaments (RTF). [Related pubchem assays (depositor defined):AID493008, AID493018, AID504382, AID504383]; format: protein-complex assay
[12] = Trypanosoma cruzi growth suppression in host cells – NIH3T3 host cells, beta-gal luminescence, confirmation (AID 2044); format: functional, cell-based;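 note: intracellular parasites grown in NIH/3T3 mouse fibroblasts as host cells; luminescent beta-galactosidase reporter signal from transgenic T. cruzi replicating inside host cells; inhibitors lower the luminescence signal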
[13] = test system: Streptococcus sp. 'group A'; experiment: Streptococcus pyogenes SK(-)GAS viability under kanamycin – luminescence, BacTiterGlo, confirmation, counter-screen for streptokinase expression inhibitor project, dose response (AID 1900); format: functional, organism-based
[14] = NIH3T3 cell viability loss – ATP luminescence, mouse fibroblasts, counter-screen, dose response (AID 2010); format: functional, cell-based;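 note: cells exposed to compound for about 90 hours before reading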
[15] = toxicity toward cultured mammalian cells – cell-based, plate reader, cherry-pick samples, cytotoxicity control, dose response (AID 504397); format: functional
[16] = biological target: T4, CAAX prenyl protease 2 (Homo sapiens, UniProt Q9Y256); experiment: inhibition of Ras-converting CAAX protease Rce1 – biochemical, yeast membranes, quenched-peptide fluorescence, cherry-pick, dose response (AID 588849)
T4 sequence (Q9Y256 whole entry): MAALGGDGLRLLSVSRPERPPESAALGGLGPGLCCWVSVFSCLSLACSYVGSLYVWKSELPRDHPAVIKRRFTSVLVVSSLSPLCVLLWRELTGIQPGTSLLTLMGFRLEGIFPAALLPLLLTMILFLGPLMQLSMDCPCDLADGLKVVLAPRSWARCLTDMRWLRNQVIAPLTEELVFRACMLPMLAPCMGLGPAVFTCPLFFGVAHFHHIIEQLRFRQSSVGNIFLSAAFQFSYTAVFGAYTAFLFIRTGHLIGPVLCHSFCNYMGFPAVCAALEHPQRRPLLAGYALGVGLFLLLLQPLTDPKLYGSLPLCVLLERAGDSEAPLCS

[17] = test system: Streptococcus; experiment: GAS UMAA2166 growth inhibition – luminescence, BacTiterGlo, counter-screen for streptokinase expression inhibitor project, dose response (AID 1915); format: functional, organism-based;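 note: potency for reduction of bacterial viability or growth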
[18] = biological target: 1-acylglycerol-3-phosphate O-acyltransferase ABHD5/Perilipin-5 (Homo sapiens, UniProt Q00G26+Q8WTS1); experiment: Luminescence-based biochemical high throughput dose response assay for inhibitors of the interaction of the lipase co-activator protein, abhydrolase domain containing 5 (ABHD5) with perilipin-5 (MLDP; PLIN5) (2K validation set). [Related pubchem assays (depositor defined):AID493035, AID493241]
[19] = biological target: Perilipin-1/ABHD5 (Homo sapiens, UniProt O60240+Q8WTS1); experiment: Luminescence-based biochemical high throughput dose response assay for inhibitors of the interaction of the lipase co-activator protein, abhydrolase domain containing 5 (ABHD5) with perilipin-1 (PLIN1) (2K validation set). [Related pubchem assays (depositor defined):AID493027, AID493057]
[20] = biological target: T5, Kappa-type opioid receptor (Homo sapiens, UniProt P41145); experiment: SAR analysis of Antagonists of the Kappa Opioid Receptor (KOR) using an Image-Based Assay - Set 3. [Related pubchem assays (depositor defined):AID1777, AID1785]; format: functional
[21] = biological target: Mu-type opioid receptor (Homo sapiens, UniProt P35372); experiment: SAR Analysis of Antagonists of the MOR Receptor using an Image-Based Assay - Set 3. [Related pubchem assays (depositor defined):AID1777, AID1785, AID1786, AID1966, AID2133, AID2136, AID2284, AID2285, AID2420]; format: functional
[22] = biological target: Delta-type opioid receptor (Homo sapiens, UniProt P41143); experiment: SAR Analysis of Antagonists of the DOR Receptor using an Image-Based Assay - Set 3. [Related pubchem assays (depositor defined):AID1777, AID1785]; format: functional;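 note: U2OS cells expressing DOR1 and beta-arrestin GFP stimulated with 100 nM SNC80; imaging of GFP-tagged beta-arrestin moving into spots after receptor activation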
[23] = biological target: T5, Kappa-type opioid receptor; experiment: SAR analysis of small molecule antagonists of the kappa opioid receptor via a luminescent beta-arrestin assay - Set 3. [Related pubchem assays (depositor defined):AID1777, AID1778, AID1785, AID1786, AID1966, AID2133, AID2136, AID2285, AID2495]; format: functional
[24] = biological target: T6, E3 ubiquitin-protein ligase XIAP (Homo sapiens, UniProt P98170); experiment: small molecules displacing peptide from XIAP – biochemical, IAP family, fluorescence polarization (AID 1018); format: functional
[25] = biological target: T6, E3 ubiquitin-protein ligase XIAP; experiment: Counter Screen using XIAP-Bir3 for Chemical Antagonists of Bir1/2 domains of IAP-family anti-apoptotic proteins. [Related pubchem assays (depositor defined):AID1018, AID1449, AID1514, AID1638, AID1749, AID1750, AID488957, AID488963]

CCOC(=O)c1c(C=O)c2ccccc2n1CC
EC50 [1]: 27.8 µM (inactive)

COC(=O)c1sc(-c2ccc(C(C)(C)C)cc2)cc1NC(=O)/C=C/C(=O)O
AC50 [2]: 3.96 µM (active) | AC50 [3]: 23.4 µM (active) | AC50 [4]: 4.68 µM (active) | CC50 [5]: 14.1 µM (active) | IC50 [6]: 65.2 µM (active) | AC50 [7]: 2.55 µM (active) | EC50 [8]: 0.701 µM (active) | CC50 [9]: 11.5 µM (active)

CC(C)C(C)(C#N)NC(=O)CSc1nnc(C(F)(F)F)n1C (stereo not given)
IC50 [10]: > 50 µM (inactive)

Cc1ccnc2nc(C(=O)OCC(=O)NCCc3ccccc3)nn12
EC50 [11]: > 71.5 µM (inactive)

C/C(Cl)=C\Cn1c(O)c(/N=N/C(=N)S)c2cc(Br)ccc21
EC50 [12]: 1.32 µM (active) | EC50 [13]: 1.26 µM (active) | EC50 [14]: > 30 µM (not active) | AC50 [15]: 281 µM (active) | AC50 [16]: 12.6 µM (active) | EC50 [17]: 3.93 µM (active)

COC(=O)[C@@H](N)CS
IC50 [18]: 4.64 µM (active) | IC50 [19]: 7.34 µM (active)

CCc1ccc(S(=O)(=O)NCc2ccc(C(=O)NCCN(CC)Cc3ccccc3)cc2)cc1
IC50 [20]: 1.99 µM (active) | IC50 [21]: 19.5 µM (inactive) | IC50 [22]: > 32 µM (inactive) | IC50 [23]: 14.4 µM (inactive)

CC(=O)NCCc1nc2ccccc2n1CCc1ccccc1
IC50 [24]: > 100 µM (not active) | IC50 [25]: > 100 µM (inactive)
